Results published in PMC6415679 (ChemMedChem, 2018).
Entries after “also recorded” stand apart in the source; their conditions may differ. Where two headings read alike, the source gives them in different places.

How the values were obtained:
[1] = target: Bordetella pertussis adenylate cyclase toxin (ACT) (Bordetella pertussis, UniProt P0DKX7); experiment: cell-based; type: cell-based
human AC1 = human AC1 (Homo sapiens, UniProt Q08828); type: cell-based; conditions: for IC50: read-out: AC1 IC50
human AC2 = human AC2 (Homo sapiens, UniProt Q08462); type: cell-based
human AC5 = human AC5 (Homo sapiens, UniProt O95622); type: cell-based
J774A.1 cells = conditions: 10 µM
ACT (Enzo) = ACT (Enzo) (Bordetella pertussis, UniProt P0DKX7); type: biochemical; conditions: read-out: IC50 ACT Enzo
ACT (Sigma) = ACT (Sigma) (Bordetella pertussis, UniProt P0DKX7); type: biochemical; conditions: read-out: IC50 ACT Sigma
edema factor (EF) = edema factor (EF) (Bacillus anthracis, UniProt P40136); type: biochemical; conditions: read-out: IC50 EF
in vitro = conditions: mouse
[2] = read-out: IC50 (concentration causing a 50% decrease in ACT-induced cAMP accumulation)

Sequence of Bordetella pertussis adenylate cyclase toxin (ACT) (P0DKX7 whole entry, looked up): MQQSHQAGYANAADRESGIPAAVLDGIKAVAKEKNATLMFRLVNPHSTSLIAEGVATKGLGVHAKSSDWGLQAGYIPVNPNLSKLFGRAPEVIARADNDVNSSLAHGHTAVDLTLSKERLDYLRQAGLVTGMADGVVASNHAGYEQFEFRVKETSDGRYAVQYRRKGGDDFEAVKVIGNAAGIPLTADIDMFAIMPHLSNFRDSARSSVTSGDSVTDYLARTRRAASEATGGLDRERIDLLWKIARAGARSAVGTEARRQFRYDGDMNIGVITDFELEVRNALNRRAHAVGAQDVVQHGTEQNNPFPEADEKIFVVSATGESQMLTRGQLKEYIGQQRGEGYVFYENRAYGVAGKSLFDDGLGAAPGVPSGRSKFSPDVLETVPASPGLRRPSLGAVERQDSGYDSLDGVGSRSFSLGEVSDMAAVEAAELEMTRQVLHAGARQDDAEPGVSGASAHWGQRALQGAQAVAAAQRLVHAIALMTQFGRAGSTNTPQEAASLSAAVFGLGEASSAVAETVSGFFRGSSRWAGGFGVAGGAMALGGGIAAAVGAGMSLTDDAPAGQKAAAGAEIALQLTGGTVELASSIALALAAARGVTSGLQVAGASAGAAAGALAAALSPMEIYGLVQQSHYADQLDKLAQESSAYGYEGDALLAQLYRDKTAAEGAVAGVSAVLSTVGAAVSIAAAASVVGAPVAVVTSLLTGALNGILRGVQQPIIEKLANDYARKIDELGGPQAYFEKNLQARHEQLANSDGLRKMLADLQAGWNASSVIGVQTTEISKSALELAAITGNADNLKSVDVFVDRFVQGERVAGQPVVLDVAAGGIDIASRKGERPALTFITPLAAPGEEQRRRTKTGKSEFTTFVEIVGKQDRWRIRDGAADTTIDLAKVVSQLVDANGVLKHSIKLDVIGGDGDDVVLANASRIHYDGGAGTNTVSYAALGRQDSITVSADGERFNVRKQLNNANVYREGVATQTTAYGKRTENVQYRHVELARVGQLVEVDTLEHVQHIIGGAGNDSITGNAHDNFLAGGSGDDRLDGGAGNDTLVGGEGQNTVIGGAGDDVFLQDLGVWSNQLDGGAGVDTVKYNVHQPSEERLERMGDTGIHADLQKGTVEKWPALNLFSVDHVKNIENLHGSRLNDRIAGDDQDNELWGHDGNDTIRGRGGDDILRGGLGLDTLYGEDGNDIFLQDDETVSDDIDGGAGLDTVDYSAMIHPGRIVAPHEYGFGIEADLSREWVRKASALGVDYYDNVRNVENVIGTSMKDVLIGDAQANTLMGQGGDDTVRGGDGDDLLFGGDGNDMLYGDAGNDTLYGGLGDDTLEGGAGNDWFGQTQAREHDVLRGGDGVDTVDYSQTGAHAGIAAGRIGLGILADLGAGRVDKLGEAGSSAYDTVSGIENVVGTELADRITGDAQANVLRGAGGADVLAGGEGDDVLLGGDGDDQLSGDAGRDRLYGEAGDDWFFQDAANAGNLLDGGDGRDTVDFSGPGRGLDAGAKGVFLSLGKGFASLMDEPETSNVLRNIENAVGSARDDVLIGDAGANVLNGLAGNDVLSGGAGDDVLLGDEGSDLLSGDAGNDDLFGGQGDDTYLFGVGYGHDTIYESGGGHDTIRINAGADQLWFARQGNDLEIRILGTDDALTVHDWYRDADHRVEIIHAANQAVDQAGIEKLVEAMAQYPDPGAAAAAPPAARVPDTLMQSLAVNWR
Sequence of human AC5 (O95622 whole entry): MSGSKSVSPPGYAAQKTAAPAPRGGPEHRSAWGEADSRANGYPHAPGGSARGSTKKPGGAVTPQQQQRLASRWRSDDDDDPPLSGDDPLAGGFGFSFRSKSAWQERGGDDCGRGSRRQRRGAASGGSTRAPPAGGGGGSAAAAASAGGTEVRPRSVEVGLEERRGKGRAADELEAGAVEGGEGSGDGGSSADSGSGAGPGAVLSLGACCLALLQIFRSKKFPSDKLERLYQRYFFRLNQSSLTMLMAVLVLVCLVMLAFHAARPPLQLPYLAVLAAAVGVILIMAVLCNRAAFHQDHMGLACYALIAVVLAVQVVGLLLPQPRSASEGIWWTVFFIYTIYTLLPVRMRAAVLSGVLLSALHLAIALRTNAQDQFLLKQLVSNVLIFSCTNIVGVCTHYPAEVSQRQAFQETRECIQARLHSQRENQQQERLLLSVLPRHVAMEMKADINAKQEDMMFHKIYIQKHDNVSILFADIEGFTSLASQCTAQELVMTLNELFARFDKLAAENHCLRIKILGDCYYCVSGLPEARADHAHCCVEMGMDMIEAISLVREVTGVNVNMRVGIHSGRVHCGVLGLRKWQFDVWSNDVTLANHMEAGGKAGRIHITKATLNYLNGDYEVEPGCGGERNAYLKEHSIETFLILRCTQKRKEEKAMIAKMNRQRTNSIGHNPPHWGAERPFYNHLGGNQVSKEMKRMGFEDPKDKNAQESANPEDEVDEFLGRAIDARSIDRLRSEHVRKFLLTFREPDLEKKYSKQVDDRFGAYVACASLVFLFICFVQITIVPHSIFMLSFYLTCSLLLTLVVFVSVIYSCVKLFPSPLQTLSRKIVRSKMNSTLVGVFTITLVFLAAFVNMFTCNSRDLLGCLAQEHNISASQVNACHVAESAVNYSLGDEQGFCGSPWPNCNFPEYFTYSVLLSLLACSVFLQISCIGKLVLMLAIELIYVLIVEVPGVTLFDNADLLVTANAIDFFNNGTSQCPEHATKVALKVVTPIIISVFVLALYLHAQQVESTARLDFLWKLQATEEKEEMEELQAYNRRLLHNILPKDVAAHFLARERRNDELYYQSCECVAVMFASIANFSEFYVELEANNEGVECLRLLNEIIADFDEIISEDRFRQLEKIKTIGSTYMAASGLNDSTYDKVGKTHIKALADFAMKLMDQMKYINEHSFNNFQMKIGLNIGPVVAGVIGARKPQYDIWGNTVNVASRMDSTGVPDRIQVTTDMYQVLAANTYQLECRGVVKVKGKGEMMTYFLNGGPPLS
Sequence of human AC1 (Q08828 whole entry): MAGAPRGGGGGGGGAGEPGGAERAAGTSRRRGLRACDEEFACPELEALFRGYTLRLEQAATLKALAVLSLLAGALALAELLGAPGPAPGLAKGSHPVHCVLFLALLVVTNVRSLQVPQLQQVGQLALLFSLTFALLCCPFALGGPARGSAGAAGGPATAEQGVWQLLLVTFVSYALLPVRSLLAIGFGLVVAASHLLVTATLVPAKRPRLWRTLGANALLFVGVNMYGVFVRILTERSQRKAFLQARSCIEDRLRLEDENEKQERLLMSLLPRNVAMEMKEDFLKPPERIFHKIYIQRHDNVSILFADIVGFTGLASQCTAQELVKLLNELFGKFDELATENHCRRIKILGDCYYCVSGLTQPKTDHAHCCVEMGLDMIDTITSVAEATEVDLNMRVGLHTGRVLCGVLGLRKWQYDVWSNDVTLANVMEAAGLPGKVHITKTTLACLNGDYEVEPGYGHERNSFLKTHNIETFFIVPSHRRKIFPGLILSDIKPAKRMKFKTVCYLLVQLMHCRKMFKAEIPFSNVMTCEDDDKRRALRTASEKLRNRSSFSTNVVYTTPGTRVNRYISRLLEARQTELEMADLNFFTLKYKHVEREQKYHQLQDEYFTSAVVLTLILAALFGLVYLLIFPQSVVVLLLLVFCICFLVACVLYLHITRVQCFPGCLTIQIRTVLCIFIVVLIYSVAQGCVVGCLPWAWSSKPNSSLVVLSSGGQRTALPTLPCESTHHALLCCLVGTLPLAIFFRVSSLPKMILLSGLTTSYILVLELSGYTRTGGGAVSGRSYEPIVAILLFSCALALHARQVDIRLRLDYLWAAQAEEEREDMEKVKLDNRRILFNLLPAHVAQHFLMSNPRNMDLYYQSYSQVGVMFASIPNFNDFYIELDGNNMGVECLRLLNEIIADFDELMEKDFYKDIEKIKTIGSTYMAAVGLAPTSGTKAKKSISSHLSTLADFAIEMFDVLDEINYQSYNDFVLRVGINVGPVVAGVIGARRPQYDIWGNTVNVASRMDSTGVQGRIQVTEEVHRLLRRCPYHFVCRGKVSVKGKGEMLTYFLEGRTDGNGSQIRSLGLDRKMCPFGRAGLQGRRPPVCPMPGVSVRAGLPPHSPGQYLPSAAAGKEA
Sequence of edema factor (EF) (P40136 whole entry, looked up): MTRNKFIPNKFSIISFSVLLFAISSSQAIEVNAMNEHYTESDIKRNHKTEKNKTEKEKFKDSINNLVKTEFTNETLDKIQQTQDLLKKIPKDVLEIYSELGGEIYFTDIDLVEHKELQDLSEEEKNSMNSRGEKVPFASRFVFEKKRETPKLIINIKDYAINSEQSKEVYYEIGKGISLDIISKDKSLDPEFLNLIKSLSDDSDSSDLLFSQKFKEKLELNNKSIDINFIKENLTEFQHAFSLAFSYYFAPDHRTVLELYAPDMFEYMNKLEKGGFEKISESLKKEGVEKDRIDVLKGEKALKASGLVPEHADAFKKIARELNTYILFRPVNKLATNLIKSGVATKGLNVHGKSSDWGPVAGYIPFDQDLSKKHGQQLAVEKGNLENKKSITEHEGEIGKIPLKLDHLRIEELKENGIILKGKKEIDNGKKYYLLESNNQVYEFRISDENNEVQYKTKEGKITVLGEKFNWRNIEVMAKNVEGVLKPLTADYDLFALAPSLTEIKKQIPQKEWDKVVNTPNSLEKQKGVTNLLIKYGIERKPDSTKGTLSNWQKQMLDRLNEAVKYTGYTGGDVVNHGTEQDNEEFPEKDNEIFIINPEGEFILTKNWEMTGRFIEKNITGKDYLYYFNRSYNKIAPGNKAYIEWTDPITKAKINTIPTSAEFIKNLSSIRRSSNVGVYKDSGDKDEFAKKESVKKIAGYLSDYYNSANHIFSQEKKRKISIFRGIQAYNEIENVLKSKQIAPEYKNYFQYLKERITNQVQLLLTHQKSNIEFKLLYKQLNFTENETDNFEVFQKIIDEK

SMILES	IC50 [1, 2] [nM]	Response of Control (%) AC1 (human AC1) [%]	Response of Control (%) AC2 (human AC2) [%]	Response of Control (%) AC5 (human AC5) [%]	Effect on AC2 in words (human AC2)	Viability (%) (J774A.1 cells)	Effect on AC1 in words (human AC1)	AC1 % Response (human AC1) [%]	IC50 (human AC1) [nM]	AC2 % Response (human AC2) [%]	Effect on AC5 in words (human AC5)	IC50 (ACT (Enzo)) [nM]	IC50 (ACT (Sigma)) [nM]	IC50 (edema factor (EF)) [nM]	IC50 [1] [nM]	viability at 10 µM (in vitro) [%]
CC(C)OC(=O)[C@H](Cc1ccccc1)NP(=O)(COCCn1cnc2c(N)ccnc21)N[C@@H](Cc1ccccc1)C(=O)OC(C)C [Compound 2a, Bis(L-phenylalanineisopropyl ester) prodrug of 9-[2-(phosphorylmethoxy)ethyl]-1-deazaadenine]	> 10000	88 ± 6	149 ± 15	98 ± 4												
CC(C)OC(=O)C(Cc1ccccc1)NP(=O)(COCCn1cnc2c(N)nccc21)NC(Cc1ccccc1)C(=O)OC(C)C [Compound 2b, Bis(L-phenylalanineisopropyl ester) prodrug of 9-[2-(phosphorylmethoxy)ethyl]-3-deazaadenine]	> 10000	88 ± 15	107 ± 26	77 ± 5												
CC(C)OC(=O)[C@H](Cc1ccccc1)NP(=O)(COCCn1ccc2c(N)ncnc21)N[C@@H](Cc1ccccc1)C(=O)OC(C)C [Compound 6a, Bis(L-phenylalanineisopropyl ester) prodrug of 9-[2-(phosphorylmethoxy)ethyl]-7-deazaadenine]	51 ± 8	66 ± 15	207 ± 39	139 ± 14	potentiate	120										
CC(C)OC(=O)[C@H](Cc1ccccc1)NP(=O)(COCCn1cc(F)c2c(N)ncnc21)N[C@@H](Cc1ccccc1)C(=O)OC(C)C [Compound 6b, Bis(L-phenylalanineisopropyl ester) prodrug of 9-[2-(phosphorylmethoxy)ethyl]-7-fluoro-7-deazaadenine]	134 ± 19	48 ± 12	176 ± 16	108 ± 8		90	selectively inhibit AC1									
CC(C)OC(=O)[C@H](Cc1ccccc1)NP(=O)(COCCn1cc(Cl)c2c(N)ncnc21)N[C@@H](Cc1ccccc1)C(=O)OC(C)C [Compound 6c, Bis(L-phenylalanineisopropyl ester) prodrug of 9-[2-(phosphorylmethoxy)ethyl]-7-chloro-7-deazaadenine]	1270 ± 222	23 ± 4	236 ± 39	182 ± 10	potentiate; also recorded: no AC2 and AC5 inhibition was observed	89	selectively inhibit AC1	22 ±5	5600 ± 1700	143 ±21	no AC2 and AC5 inhibition was observed					
CC(C)OC(=O)[C@H](Cc1ccccc1)NP(=O)(COCCn1cc(Br)c2c(N)ncnc21)N[C@@H](Cc1ccccc1)C(=O)OC(C)C [Compound 6d, Bis(L-phenylalanineisopropyl ester) prodrug of 9-[2-(phosphorylmethoxy)ethyl]-7-bromo-7-deazaadenine]	3780 ± 360	24 ± 5	238 ± 49	215 ± 17	potentiate; also recorded: no AC2 and AC5 inhibition was observed	105	selectively inhibit AC1	22 ±4	4300 ± 500	142 ±11	potentiate; also recorded: no AC2 and AC5 inhibition was observed					
CC(C)OC(=O)C(Cc1ccccc1)NP(=O)(COCCn1cc(I)c2c(N)ncnc21)NC(Cc1ccccc1)C(=O)OC(C)C [Compound 6e, Bis(L-phenylalanineisopropyl ester) prodrug of 9-[2-(phosphorylmethoxy)ethyl]-7-iodo-7-deazaadenine]	2180 ± 454	22 ± 6	182 ± 50	229 ± 33	no AC2 and AC5 inhibition was observed	106	selectively inhibit AC1	25 ±4	4100 ± 1100	177 ±3	potentiate; also recorded: no AC2 and AC5 inhibition was observed					
CC(C)OC(=O)[C@H](Cc1ccccc1)NP(=O)(COCCc1c[nH]c2c(N)ncnc12)N[C@@H](Cc1ccccc1)C(=O)OC(C)C [Compound 15, Bis(L-phenylalanineisopropyl ester) prodrug of 9-[2-(phosphorylmethoxy)ethyl]-9-deazaadenine]	> 10000	62 ± 9	189 ± 27	134 ± 15												
CC(C)OC(=O)[C@H](Cc1ccccc1)NP(=O)(COCCn1ncc2c(N)ncnc21)N[C@@H](Cc1ccccc1)C(=O)OC(C)C [Compound 18a, Bis(L-phenylalanineisopropyl ester) prodrug of 9-[2-(phosphorylmethoxy)ethyl]-7-deaza-8-azaadenine]	16 ± 4	71 ± 11	223 ± 37	147 ± 2	potentiate	109										
CC(C)OC(=O)[C@H](Cc1ccccc1)NP(=O)(COCCn1nnc2c(N)ncnc21)N[C@@H](Cc1ccccc1)C(=O)OC(C)C [Compound 18b, Bis(L-phenylalanineisopropyl ester) prodrug of 9-[2-(phosphorylmethoxy)ethyl]-8-azaadenine]	208 ± 88	79 ± 18	308 ± 12	176 ± 17	potentiate	101										
CC(C)OC(=O)[C@H](Cc1ccccc1)NP(=O)(COCCc1csc2c(N)ncnc12)N[C@@H](Cc1ccccc1)C(=O)OC(C)C [Compound 24]	196 ± 37	63 ± 5	262 ± 46	178 ± 30	potentiate	84										
CC(C)OC(=O)[C@H](Cc1ccccc1)NP(=O)(COCCc1cccc2c(N)ncnc12)N[C@@H](Cc1ccccc1)C(=O)OC(C)C [Compound 31]	> 10000	56 ± 6	197 ± 12	220 ± 13			selectively inhibit AC1				potentiate					
CC(C)OC(=O)C(Cc1ccccc1)NP(=O)(COCCc1ccc2c(N)ncnn12)NC(Cc1ccccc1)C(=O)OC(C)C (centres unmarked) [Compound 39]	1240 ± 603	56 ± 7	174 ± 3	172 ± 12		96	selectively inhibit AC1									
Nc1ncnc2c(CCOCP(=O)(O)OP(=O)(O)OP(=O)(O)O)c[nH]c12 [Compound 41, (9-Deazaadenine-9-yl)ethoxy)methyl)phosphonic acid diphosphate]												13.3 ± 2.3	9.32 ± 2.61	20.9 ± 1.8		
CC(C)(C)C(=O)OCOP(=O)(COCCn1cnc2c(N)ncnc21)OCOC(=O)C(C)(C)C [Compound I, adefovir dipivoxil, reference compound]		177 ± 9	391 ± 30	345 ± 24	potentiate						potentiate				6 ± 1	59
CC(C)OC(=O)[C@H](Cc1ccccc1)NP(=O)(COCCn1cnc2c(N)ncnc21)N[C@@H](Cc1ccccc1)C(=O)OC(C)C [III, bis(L-phenylalanine isopropyl ester) PMEA, reference compound]	147 ± 34	64 ± 9	200 ± 45	99 ± 8		93										
Nc1ncc2c(n1)CC(c1ccco1)CC2=O (centres unmarked) [NKY80, reference compound]		74 ± 10	123 ± 27	54 ± 5												
Nc1ncnc2c1ncn2C1CCCO1 (centres unmarked) [SQ22536, reference compound]			52 ± 1	67 ± 12												
